Laboratory results taken from US20080293775A1, “Substituted Diphenylethers, -Amines, -Sulfides and -Methanes for the Treatment of Respiratory Disease” (ASTRAZENECA AB, priority 2005, published 2008).

Target: T1, rhCRTh2 (Homo sapiens, UniProt Q9Y5Y4)
T1 construct: expressed in transfected cells; host or cells: HEK cells (membrane preparation)
T1 sequence (Q9Y5Y4 1-395): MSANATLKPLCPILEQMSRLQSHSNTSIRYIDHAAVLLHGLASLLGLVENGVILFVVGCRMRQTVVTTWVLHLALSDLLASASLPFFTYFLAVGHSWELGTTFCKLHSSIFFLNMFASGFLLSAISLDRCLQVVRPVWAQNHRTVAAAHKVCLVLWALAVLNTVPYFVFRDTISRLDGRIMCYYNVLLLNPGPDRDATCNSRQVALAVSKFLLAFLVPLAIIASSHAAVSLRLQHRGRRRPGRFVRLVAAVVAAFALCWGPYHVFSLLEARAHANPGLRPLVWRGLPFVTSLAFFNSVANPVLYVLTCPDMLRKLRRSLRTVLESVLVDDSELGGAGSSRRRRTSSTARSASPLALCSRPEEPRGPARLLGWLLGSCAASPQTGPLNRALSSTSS
Experiment: Ligand binding assay ([3H]PGD2, SPA beads, HEK cell membranes)
Settings: [3H]PGD2 binding to membranes of HEK cells expressing rhCRTh2/Gα16, SPA, 2 hours at RT; read-out: pIC50 value (converted)
Experimental: [^3H]PGD2 was purchased from Perkin Elmer Life Sciences with a specific activity of 100-210 Ci/mmol. All other chemicals were of analytical grade.
HEK cells expressing rhCRTh2/Gα16 were routinely maintained in DMEM containing 10% Foetal Bovine Serum (HyClone), 1 mg/ml geneticin, 2 mM L-glutamine and 1% non-essential amino acids. For the preparation of membranes, the adherent transfected HEK cells were grown to confluence in two layer tissue culture factories (Fisher, catalogue number TKT-170-070E). Maximal levels of receptor expression were induced by addition of […] sodium butyrate for the last 18 hours of culture. The adherent cells were washed once with phosphate buffered saline (PBS, 50 ml per cell factory) and detached by the addition of 50 ml per cell factory of ice-cold membrane homogenisation buffer [20 mM HEPES (pH 7.4), 0.1 mM dithiothreitol, 1 mM EDTA, 0.1M phenyl methyl sulphonyl fluoride and 100 μg/ml bacitracin]. Cells were pelleted by centrifugation at 220×g for 10 minutes at 4° C., re-suspended in half the original volume of fresh membrane homogenisation buffer and disrupted using a Polytron homogeniser for 2×20 second bursts keeping the tube in ice at all times. […] The final pellet was re-suspended in 4 ml of membrane homogenisation buffer per cell factory used and the protein content determined. […]
All assays were performed in Corning clear bottomed, white 96-well NBS plates (Fisher). […] (The optimum coating concentrations were determined for each batch of membranes) The beads were pelleted by centrifugation (800×g for 7 minutes at 4° C.), washed once with assay buffer (50 mM HEPES pH 7.4 containing 5 mM magnesium chloride) and finally re-suspended in assay buffer at a bead concentration of 10 mg/ml. […]
Compounds and DK-PGD2 were dissolved in DMSO and diluted in the same solvent to 100× the required final concentration. […] The assay plate was incubated at RT for 2 hours and counted on a Wallac Microbeta liquid scintillation counter (1 minute per well).

Row | IC50 [nM] | Compound
1 | 158 | CC(=O)NS(=O)(=O)Cc1ccc(Cl)cc1Oc1ccc(S(C)(=O)=O)cc1Cl [Example 6, N-({4-chloro-2-[2-chloro-4-(methylsulfonyl)phenoxy]benzyl}sulfonyl)acetamide]
2 | 141 | CS(=O)(=O)NC(=O)Cc1ccc(Cl)c(Oc2ccc(S(C)(=O)=O)cc2Cl)c1 [Example 9, 2-{4-chloro-3-[2-chloro-4-(methylsulfonyl)phenoxy]phenyl}-N-(methylsulfonyl)acetamide]
3 | 158 | CS(=O)(=O)c1ccc(Sc2cc(Cl)ccc2OCc2nnn[nH]2)c(Cl)c1 [Example 4]
